Experimental findings from article PMC13165411 (Molecules, 2026) are described below.

Several values for one entry are separate records, joined by “and”; a condition that tells them apart may be missing. Equal entries are not always repeated.

A short description of data set [1]: Inhibitor stability under oxidative conditions by direct-infusion ESI-MS. It is filed as physicochemical. The conditions noted are these: 100 μM compound, 44 mM H2O2, 30 min, 37 °C, no HNE. The protocol:
Mass spectrometry analysis was performed using an Advion Interchim Scientific expression® Compact Mass Spectrometer (CMS) (Advion Interchim Scientific, Ithaca, NY, USA) equipped with an ESI source. Stock solutions of each inhibitor were prepared in DMSO and diluted in an assay buffer to a final concentration of 100 μM (DMSO ≤ 1% v/v). Aliquots were incubated in the presence or absence of H2O2 (44 mM final concentration) for 30 min at 37 °C, matching the oxidative treatment used in the enzymatic assays. After incubation, samples were diluted 1:1 (v/v) with water containing 0.1% formic acid and directly analyzed in both positive- and negative-ion mode. Mass spectra were analyzed with Mass Express software version 5.1.

The target of data set [2] is T1, Human neutrophil elastase (HNE) (Homo sapiens, UniProt P08246).
T1 construct: purchased Abcam
T1 sequence (P08246 30-267): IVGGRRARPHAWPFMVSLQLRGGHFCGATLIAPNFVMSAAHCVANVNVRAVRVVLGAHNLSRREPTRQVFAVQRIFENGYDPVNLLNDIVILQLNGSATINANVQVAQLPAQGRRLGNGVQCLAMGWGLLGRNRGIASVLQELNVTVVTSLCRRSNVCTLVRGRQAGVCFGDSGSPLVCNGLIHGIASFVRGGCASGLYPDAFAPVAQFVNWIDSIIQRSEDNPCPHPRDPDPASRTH
The data set is described as follows: HNE colorimetric inhibition and steady-state kinetics assay (MeOSuc-Ala-Ala-Pro-Val-pNA), native conditions. It is filed as biochemical. The note with it: inhibitor 0.1-100 μM; for Mode of inhibition (Lineweaver-Burk plots): steady-state kinetics. The protocol: HNE activity was assessed through a colorimetric assay based on the hydrolysis of the synthetic peptide substrate MeOSuc-Ala-Ala-Pro-Val-pNA [37]. To determine the steady-state kinetic parameters, 0.4 μg of HNE (corresponding to a final concentration of approximately 0.05 μM) were added to an incubation buffer consisting of 50 mM Tris-HCl, pH 7.8 containing 500 mM NaCl. The reaction was initiated by adding a fixed volume (20 µL) of intermediate substrate working solutions to the enzyme–buffer mixture, reaching a final reaction volume of 200 µL. These working solutions were prepared by diluting a 20 mM substrate stock solution in DMSO with incubation buffer, ensuring that the final DMSO concentration remained constant at 1% (v/v) across all tested substrate concentrations (ranging from 0.075 to 2.4 mM). This approach was applied to all samples, including blanks, to maintain a uniform solvent environment. The mixtures were incubated at 37 °C for 45 min. […] The reaction was then quenched with 20 μL of 0.45 M trichloroacetic acid (TCA). After cooling on ice for 30 min, the samples were centrifuged at 11,500 rpm for 10 min to remove precipitated proteins. The concentration of p-nitroaniline (p-NA) released into the supernatant was determined by measuring the absorbance at 410 nm. All assays were performed in triplicate, and the kinetic parameters were determined by fitting the experimental data to the Michaelis–Menten equation using GraphPad Prism 8.0 software (GraphPad Software, San Diego, CA, USA).
Stock solutions of both inhibitors were prepared in DMSO and diluted with incubation buffer to obtain intermediate working solutions. A fixed volume of these working solutions was added to each reaction mixture so that the final DMSO concentration remained constant at 1% (v/v) across all inhibitor concentrations. […]
Subsequently, the inhibition constants (Ki) were determined independently from IC50 values by performing steady-state kinetic assays at varying concentrations of both substrate and inhibitors. […]

Data set [3] concerns the target T2, HNE under oxidizing conditions (oxidized HNE) (Homo sapiens, UniProt P08246).
T2 construct: purchased Abcam
T2 sequence (P08246 30-247 limits assumed): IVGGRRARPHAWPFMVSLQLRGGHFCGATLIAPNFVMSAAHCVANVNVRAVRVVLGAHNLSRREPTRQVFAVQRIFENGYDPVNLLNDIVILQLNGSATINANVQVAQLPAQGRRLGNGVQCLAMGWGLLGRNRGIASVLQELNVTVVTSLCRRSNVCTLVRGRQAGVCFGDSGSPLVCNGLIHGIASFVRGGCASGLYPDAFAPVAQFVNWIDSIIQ
Kind of data set: HNE inhibition assay under oxidizing conditions (HNE pre-incubated with 44 mM H2O2). The note with it: for remaining activity at 100 µM: HNE under oxidizing conditions (44 mM H2O2), maximum inhibitor concentration 100 μM, read-out: Residual Activity at Maximum Inhibitor Concentration (%). It counts as biochemical. The procedure:
HNE activity under oxidative conditions was determined using the colorimetric assay described above. Briefly, HNE was pre-incubated with 1 μL of 30% (w/v) H2O2 (final concentration 44 mM in a total reaction volume of 200 μL) for 60 min at 37 °C. The oxidative conditions used in this study were designed to promote cumulative oxidative modifications of HNE rather than to reproduce physiological ROS concentrations, allowing simulation of oxidative stress in chronically inflamed tissues where repeated ROS exposure leads to progressive protein oxidation. The kinetic parameters of oxidized HNE were determined as described above. Subsequently, inhibition assays were performed by initiating the reaction with substrate (final concentration 0.15 mM) in the presence of increasing concentrations of inhibitor (0.1–100 μM). The reaction mixtures were then incubated at 37 °C for 45 min and then terminated by the addition of 20 μL of 0.45 M TCA. Samples were cooled on ice, centrifuged, and analyzed as described in Section 2.4.
Residual enzymatic activity (%) was calculated relative to HNE activity in the absence of inhibitors, set as 100%. The lowest observed activity under the experimental conditions was taken as the maximal inhibition achieved within this assay range.

A short description of data set [4]: Cytotoxicity on A549 cell monolayers (resazurin reduction assay). It counts as cell-based. The conditions noted are these: human, A549 cells (confluent monolayer), 0.1 to 1000 µM, 16 h exposure, read-out: Cell viability (% of untreated control). The protocol: Cells were obtained from the American Type Culture Collection (ATCC, Manassas, VA, USA) and cultured according to the supplier’s instructions. Cells were maintained in DMEM supplemented with 10% fetal bovine serum (FBS) and seeded into sterile 96-well plates at a density of 1 × 10^5 cells per well, allowing for the formation of a confluent monolayer prior to treatment. After 24 h incubation at 37 °C (5% CO2), the culture medium was replaced with 200 μL of fresh medium containing ten-fold dilutions of the test compounds, ranging from 0.1 to 1000 µM.
After a 16 h exposure period, cell viability was assessed via the resazurin reduction assay. Briefly, 30 μL of a 0.01% resazurin solution (Sigma-Aldrich, St. Louis, MO, USA) was added to each well and incubated for 4 h at 37 °C. The reduction of resazurin to resorufin by metabolically active cells was quantified using a ClarioSTAR microplate reader (BMG Labtech, Ortenberg, Germany), with excitation and emission wavelengths set at 520 nm and 580 nm, respectively. All experiments were performed in triplicate, and cell viability was expressed as a percentage relative to untreated control wells.

As to `Cc1c(-c2ccnn2C)cc(C(=O)NCc2ccc(S(C)(=O)=O)cn2)c(=O)n1-c1cccc(C(F)(F)F)c1` [Alvelestat], in data set [1], the “Chemical stability under oxidizing conditions (ESI-MS spectra vs untreated control)” value was “no additional peaks”. In addition, the “Mode of inhibition (Lineweaver-Burk plots)” value in data set [2] is given as “competitive inhibition”. The IC50 in data set [2] (substrate 0.15 mM, 37 °C, 45 min, read-out: IC50 against HNE activity) was 2.8 µM and 2.84 µM; in data set [3] (HNE pre-incubated with 44 mM H2O2, 60 min, 37 °C, substrate 0.15 mM) it was 4 ± 0.41 µM. Moreover, in data set [3], the remaining activity at 100 µM was under 20%. The viability at 16 h in data set [4] was about 100%.
For the compound `CC(C)(C)C(=O)Oc1ccc(S(=O)(=O)Nc2ccccc2C(=O)NCC(=O)O)cc1` [Sivelestat], in data set [1], the “Chemical stability under oxidizing conditions (ESI-MS spectra vs untreated control)” value is “no additional peaks”. For the same compound, the “Mode of inhibition (Lineweaver-Burk plots)” value in data set [2] is listed as “competitive inhibition”. In data set [3] (100 μM inhibitor, HNE pre-treated with 44 mM H2O2), the “Inhibition of oxidized HNE at the highest tested concentration” value is “failed to achieve significant inhibition”. Besides, in data set [3], the remaining activity at 100 µM was over 80%. Moreover, the viability at 16 h in data set [4] was about 100%.
